Results published in paper PMC12892976, “Alkylation-based optimization of antifungal FPPS inhibitors yields a potent, broad-spectrum lipophilic zoledronate derivative” (mBio, 2025).
Like-named read-outs stand apart in the source and are kept apart here.

Assays:
[1] = test system: Candida albicans; assay: checkerboard drug interaction (FICI, MICc);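 for all read-outs here: antifungal plus FPPS inhibitor combinations on Candida albicans tested by a simplified diagonal checkerboard screen, with FICI calculated under the Loewe additivity model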; assay type: cell-based; settings: C. albicans; for INH FD (MIC-MICc fold decrease): fold decrease of inhibitor MIC
Description: (§1) Drug interactions between antifungals and FPPS inhibitors were investigated using a simplified checkerboard diagonal screening method ([45]). […] FICIs were determined according to the Loewe additivity model ([17]).

[2] = test system: eight fungal species; assay: MIC/MFC summary across the eight fungal species of Table 1; assay type: cell-based
Description: The antifungal activity of these compounds was evaluated according to CLSI guidelines ([16]).

[3] = test system: Saccharomyces cerevisiae; assay: MIC/MFC broth microdilution (CLSI); assay type: cell-based; settings: Saccharomyces cerevisiae S288c
Description: (§2) Antifungal susceptibility was determined by broth microdilution according to the CLSI guidelines described in M27-Ed4 ([16]). […] MFC was determined by back-plating drug-treated cultures from MIC broths onto SDA plates. The MFC was defined as the lowest concentration from which no colonies could be cultured.

[4] = test system: HEK-293T cells; assay: MTT reduction cytotoxicity assay; assay type: cell-based; settings: Homo sapiens, HEK-293T, 72 h, HEK-293T, MTT, 72 h; read-out: HEK IC50
[5] = test system: Candida albicans; assay: MIC/MFC broth microdilution (CLSI); assay type: cell-based; settings: Candida albicans SC5314
Description: as §2

[6] = test system: Trichophyton rubrum; assay: checkerboard drug interaction (FICI, MICc);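 note: simplified diagonal checkerboard screen pairing azole antifungals with FPPS inhibitors, FICI calculated under the Loewe additivity model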; assay type: cell-based; settings: T. rubrum
Description: as §1

[7] = test system: Cryptococcus deuterogattii; assay: checkerboard drug interaction (FICI, MICc);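 for all read-outs here: simplified diagonal checkerboard screen pairing antifungal drugs with FPPS inhibitors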; assay type: cell-based; settings: C. deuterogattii; for INH FD (MIC-MICc fold decrease): fold decrease of inhibitor MIC
Description: as §1

[8] = test system: Candida glabrata; assay: checkerboard drug interaction (FICI, MICc);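 for all read-outs here: simplified diagonal checkerboard screen pairing antifungals with FPPS inhibitors, FICI calculated under the Loewe additivity model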; assay type: cell-based; settings: C. glabrata; for INH FD (MIC-MICc fold decrease): fold decrease of inhibitor MIC
Description: as §1

[9] = test system: Candida glabrata; assay: MIC/MFC broth microdilution (CLSI); settings: Nakaseomyces glabratus, CBS138;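 note: broth microdilution following CLSI M27-Ed4, MFC taken as the lowest drug level yielding no growth once MIC wells were subcultured on SDA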
Description: as §2

[10] = test system: Cryptococcus neoformans; assay: MIC/MFC broth microdilution (CLSI); settings: Cryptococcus neoformans;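 note: susceptibility testing followed the CLSI M27-Ed4 broth microdilution document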
Description: as §2

[11] = test system: Aspergillus flavus; assay: MIC/MFC broth microdilution (CLSI); settings: ATCC204304
Description: as §2

[12] = FLC:INH combination, MIC of the inhibitor in combination with FLC
[13] = FLC:INH combination, fold decrease of FLC MIC
[14] = ITR:INH combination, MIC of the inhibitor in combination with ITR
[15] = ITR:INH combination, fold decrease of ITR MIC
[16] = KET:INH combination, MIC of the inhibitor in combination with KET
[17] = KET:INH combination, fold decrease of KET MIC

SMILES: CCCCCCCCCN1CCC[C@H]1C(=O)N[C@@H](CC(=O)O)C(=O)O [PLA9]
- FICI ([1]; FLC:INH combination): ≥4
- INH MICc [1, 12]: 64
- FLC FD (MIC-MICc fold decrease) [1, 13]: < -4
- INH FD (MIC-MICc fold decrease) ([1]; FLC:INH combination): 4
- FICI ([1]; ITR:INH combination): 0.52
- INH MICc [1, 14]: 4
- ITR FD (MIC-MICc fold decrease) [1, 15]: 2
- INH FD (MIC-MICc fold decrease) ([1]; ITR:INH combination): 64
- FICI ([1]; KET:INH combination): ≥4
- INH MICc [1, 16]: 64
- KET FD (MIC-MICc fold decrease) [1, 17]: < -4
- INH FD (MIC-MICc fold decrease) ([1]; KET:INH combination): 4
- MFC ([2]; across eight species, read-out: Geometric mean MFC): > 128 µg/mL
- MIC ([2]; geometric mean across eight species, read-out: GM fungal MIC): > 128 µg/mL
- MIC ([2]; read-out: Geometric mean MIC): > 128 µg/mL
- MFC [3]: > 128 µg/mL
- MIC [3]: > 128 µg/mL
- IC50 [4]: > 256 µg/mL
- MFC [5]: > 128 µg/mL
- MIC [5]: > 128 µg/mL
- FICI (FLC:INH) ([6]; Fractional Inhibitory Concentration Index, fluconazole + inhibitor): 3
- FICI (ITR:INH) ([6]; Fractional Inhibitory Concentration Index, itraconazole + inhibitor): 2
- FICI (KET:INH) ([6]; Fractional Inhibitory Concentration Index, ketoconazole + inhibitor): 1.5
- INH MICc (FLC:INH) ([6]; MIC of the inhibitor in combination with fluconazole): 256
- INH MICc (ITR:INH) ([6]; MIC of the inhibitor in combination with itraconazole): 256
- INH MICc (KET:INH) ([6]; MIC of the inhibitor in combination with ketoconazole): 128
- FLC FD (FLC:INH) ([6]; MIC-MICc fold decrease of fluconazole, negative = increase): -2
- ITR FD (ITR:INH) ([6]; MIC-MICc fold decrease of itraconazole, negative = increase): 1
- KET FD (KET:INH) ([6]; MIC-MICc fold decrease of ketoconazole, negative = increase): 1
- INH FD (FLC:INH) ([6]; MIC-MICc fold decrease of the inhibitor, with fluconazole): 1
- INH FD (ITR:INH) ([6]; MIC-MICc fold decrease of the inhibitor, with itraconazole): 1
- INH FD (KET:INH) ([6]; MIC-MICc fold decrease of the inhibitor, with ketoconazole): 2
- FICI ([7]; FLC:INH combination): ≥4
- INH MICc [7, 12]: 256
- FLC FD (MIC-MICc fold decrease) [7, 13]: -4
- INH FD (MIC-MICc fold decrease) ([7]; FLC:INH combination): 1
- FICI ([7]; ITR:INH combination): ≥4
- INH MICc [7, 14]: 256
- ITR FD (MIC-MICc fold decrease) [7, 15]: < -4
- INH FD (MIC-MICc fold decrease) ([7]; ITR:INH combination): 1
- FICI ([7]; KET:INH combination): 1
- INH MICc [7, 16]: 128
- KET FD (MIC-MICc fold decrease) [7, 17]: 2
- INH FD (MIC-MICc fold decrease) ([7]; KET:INH combination): 2
- FICI ([8]; FLC:INH combination): 0.31
- INH MICc [8, 12]: 4
- FLC FD (MIC-MICc fold decrease) [8, 13]: 4
- INH FD (MIC-MICc fold decrease) ([8]; FLC:INH combination): 64
- FICI ([8]; ITR:INH combination): 0.28
- INH MICc [8, 14]: 2
- ITR FD (MIC-MICc fold decrease) [8, 15]: 4
- INH FD (MIC-MICc fold decrease) ([8]; ITR:INH combination): 128
- FICI ([8]; KET:INH combination): 0.28
- INH MICc [8, 16]: 2
- KET FD (MIC-MICc fold decrease) [8, 17]: 4
- INH FD (MIC-MICc fold decrease) ([8]; KET:INH combination): 128
- MFC [9]: > 128 µg/mL
- MIC [9]: > 128 µg/mL
- MFC [10]: > 128 µg/mL
- MIC [10]: > 128 µg/mL
- MFC [11]: > 128 µg/mL
- MIC [11]: > 128 µg/mL
